How the values were obtained:
[1] = biological target: TEAD2 (Homo sapiens (Human), UniProt Q15562);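 note: TR-FRET competition assay with His-tagged TEAD protein and a biotinylated lipid pocket probe, compound pre-incubated 30 min or 4 h at room temperature, displacement lowers signal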
[2] = biological target: TEAD3 (Homo sapiens (Human), UniProt Q99594); experiment: TR-FRET lipid pocket probe competition assay (Lipid HTRF), TEAD3; format: binding; settings: 4 hours pre-incubation; read-out: Lipid HTRF TEAD3 IC50
[3] = biological target: TEAD1 (Homo sapiens (Human), UniProt P28347); experiment: TR-FRET lipid pocket probe competition assay (Lipid HTRF), TEAD1; format: binding; settings: 4 hours pre-incubation; read-out: Lipid HTRF TEAD1 IC50;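 note: His-tagged TEAD1 with biotinylated probe, detected via Europium anti-His and XL665 streptavidin, probe displacement lowers TR-FRET signal, IC50 from four-parameter nonlinear fit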
Chain of TEAD1 (P28347 whole entry, species assumed): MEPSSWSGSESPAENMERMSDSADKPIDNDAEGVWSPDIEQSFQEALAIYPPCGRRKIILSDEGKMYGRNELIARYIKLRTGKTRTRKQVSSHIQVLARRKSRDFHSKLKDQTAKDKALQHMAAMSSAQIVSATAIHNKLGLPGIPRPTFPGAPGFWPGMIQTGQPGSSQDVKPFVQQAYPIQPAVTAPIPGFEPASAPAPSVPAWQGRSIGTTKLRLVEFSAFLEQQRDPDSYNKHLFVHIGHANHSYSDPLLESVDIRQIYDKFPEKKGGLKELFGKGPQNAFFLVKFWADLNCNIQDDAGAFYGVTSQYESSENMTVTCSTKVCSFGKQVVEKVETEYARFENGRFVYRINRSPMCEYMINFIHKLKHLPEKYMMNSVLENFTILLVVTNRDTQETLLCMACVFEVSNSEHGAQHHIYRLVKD

Chain of TEAD3 (Q99594 whole entry, species assumed): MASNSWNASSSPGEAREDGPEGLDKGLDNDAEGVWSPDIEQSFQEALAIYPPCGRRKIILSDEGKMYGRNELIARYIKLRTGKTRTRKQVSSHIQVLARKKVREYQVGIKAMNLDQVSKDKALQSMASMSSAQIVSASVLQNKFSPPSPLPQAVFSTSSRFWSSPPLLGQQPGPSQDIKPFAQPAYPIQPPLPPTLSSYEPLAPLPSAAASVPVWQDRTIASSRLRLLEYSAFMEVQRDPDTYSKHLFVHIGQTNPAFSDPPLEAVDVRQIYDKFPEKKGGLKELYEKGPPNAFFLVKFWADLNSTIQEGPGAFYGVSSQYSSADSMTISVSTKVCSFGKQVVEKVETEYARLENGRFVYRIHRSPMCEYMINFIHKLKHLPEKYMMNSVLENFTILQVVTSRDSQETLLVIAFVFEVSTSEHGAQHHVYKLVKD
Chain of TEAD2 (Q15562 whole entry, species assumed): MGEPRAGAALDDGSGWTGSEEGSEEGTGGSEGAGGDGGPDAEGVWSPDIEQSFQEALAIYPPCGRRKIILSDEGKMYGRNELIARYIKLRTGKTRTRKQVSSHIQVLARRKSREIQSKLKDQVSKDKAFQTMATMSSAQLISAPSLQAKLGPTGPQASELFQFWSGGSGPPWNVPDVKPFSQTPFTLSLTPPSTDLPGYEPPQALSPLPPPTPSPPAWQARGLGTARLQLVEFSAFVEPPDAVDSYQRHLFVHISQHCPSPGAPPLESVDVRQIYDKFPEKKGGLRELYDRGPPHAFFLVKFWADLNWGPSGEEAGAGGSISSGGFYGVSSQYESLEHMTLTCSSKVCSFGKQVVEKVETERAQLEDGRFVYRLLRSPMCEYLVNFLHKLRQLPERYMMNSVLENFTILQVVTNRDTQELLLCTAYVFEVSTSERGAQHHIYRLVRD

Row | SMILES | IC50 [1] [nM] | IC50 [2] [nM] | IC50 [3] [nM]
1 | C/C=C/C(=O)NCc1nn(-c2ccc(OC(F)(F)F)cc2)c2nccc(CO)c12 [Compound 61, (E)-N-((4-(Hydroxymethyl)-1-(4-(trifluoromethoxy)phenyl)-1H-pyrazolo[3,4-b]pyridin-3-yl)methyl)but-2-enamide] | 2300 | 50000 | –
2 | O=C(/C=C/CO)N1CC(c2nn(-c3ccc(OC(F)(F)F)cc3)c3nccc([C@@H](O)CO)c23)C1 [Compound 95, (R,E)-1-(3-(4-(1,2-dihydroxyethyl)-1-(4-(trifluoromethoxy)phenyl)-1H-pyrazolo[3,4-b]pyridin-3-yl)azetidin-1-yl)-4-hydroxybut-2-en-1-one] | 27 | 92 | –
3 | O=C(NCc1nn(-c2ccc(OC(F)(F)F)cc2)c2nccc(CO)c12)C1=CCOC1 [Compound 149, N-((4-(Hydroxymethyl)-1-(4-(trifluoromethoxy)phenyl)-1H-pyrazolo[3,4-b]pyridin-3-yl)methyl)-2,5-dihydrofuran-3-carboxamide] | – | – | 910
4 | C=CC(=O)NCc1nn(-c2ccc(OC(F)(F)F)cc2)c2nccc(N3CC([C@@H](C)O)C3)c12 (stereo in doubt) [Compound 123, N-((4-(3-(1-hydroxyethyl)azetidin-1-yl)-1-(4-(trifluoromethoxy)phenyl)-1H-pyrazolo[3,4-b]pyridin-3-yl)methyl)acrylamide] | 180 | – | –
5 | O=C(/C=C/CO)N1CC(c2nn(-c3ccc(OC(F)(F)F)cc3)c3nccc([C@H](O)CO)c23)C1 [Compound 108, (S,E)-1-(3-(4-(1,2-Dihydroxyethyl)-1-(4-(trifluoromethoxy)phenyl)-1H-pyrazolo[3,4-b]pyridin-3-yl)azetidin-1-yl)-4-hydroxybut-2-en-1-one] | 120 | 140 | –
6 | C=CC(=O)NCc1nn(-c2ccc(OC(F)(F)F)cc2)c2nccc(N3CC([C@H](C)O)C3)c12 (stereo in doubt) [Compound 138, N-((4-(3-(1-hydroxyethyl)azetidin-1-yl)-1-(4-(trifluoromethoxy)phenyl)-1H-pyrazolo[3,4-b]pyridin-3-yl)methyl)acrylamide] | 290 | – | –

Results, then the compound that gave them:

Row | IC50 [1] [nM] | IC50 [2] [nM] | IC50 [3] [nM] | SMILES
7 | 3.4 | – | – | C/C=C/S(=O)(=O)N1CC(c2nn(-c3ccc(OC(F)(F)F)cc3)c3nccc([C@H](O)CO)c23)C1 [Compound 161, (S,E)-1-(3-(1-(Prop-1-en-1-ylsulfonyl)azetidin-3-yl)-1-(4-(trifluoromethoxy)phenyl)-1H-pyrazolo[3,4-b]pyridin-4-yl)ethane-1,2-diol]
8 | 5.7 | 17 | – | O=C(C1=CCC1)N1CC(c2nn(-c3ccc(OC(F)(F)F)cc3)c3nccc([C@@H](O)CO)c23)C1 [Compound 157, (R)-Cyclobut-1-en-1-yl(3-(4-(1,2-dihydroxyethyl)-1-(4-(trifluoromethoxy)phenyl)-1H-pyrazolo[3,4-b]pyridin-3-yl)azetidin-1-yl)methanone]
9 | 6 | 11 | – | O=C(C1=CCC1)N1CC(c2nn(-c3ccc(OC(F)(F)F)cc3)c3nccc([C@@H](O)CO)c23)C1 [Compound 115, (R)-cyclobut-1-en-1-yl(3-(4-(1,2-dihydroxyethyl)-1-(4-(trifluoromethoxy)phenyl)-1H-pyrazolo[3,4-b]pyridin-3-yl)azetidin-1-yl)methanone]
10 | 7.5 | 19 | – | O=C(C1=CCC1)N1CC(c2nn(-c3ccc(OC(F)(F)F)cc3)c3nccc([C@H](O)CO)c23)C1 [Compound 72, (S)-Cyclobut-1-en-1-yl(3-(4-(1,2-dihydroxyethyl)-1-(4-(trifluoromethoxy)phenyl)-1H-pyrazolo[3,4-b]pyridin-3-yl)azetidin-1-yl)methanone]
11 | 10 | – | – | C/C=C/S(=O)(=O)N1CC(c2nn(-c3ccc(OC(F)(F)F)cc3)c3nccc([C@@H](O)CO)c23)C1 [Compound 162, (R,E)-1-(3-(1-(prop-1-en-1-ylsulfonyl)azetidin-3-yl)-1-(4-(trifluoromethoxy)phenyl)-1H-pyrazolo[3,4-b]pyridin-4-yl)ethane-1,2-diol]
